Source: PubChem BioAssay (NCI)
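How tested: cells in 96-well plates exposed to compound for 48 hours at five concentrations. GI50 is the concentration that inhibits growth by half. TGI marks complete inhibition of growth.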

How the values were obtained:
Experiment in all cases: growth of human tumour cells (NCI), 48 h
A498 renal = test system: A498 renal
A549 NSCLC = test system: A549 NSCLC
BT-549 breast = test system: BT-549 breast
CAKI-1 renal = test system: CAKI-1 renal
CCRF-CEM leukemia = test system: CCRF-CEM leukemia
COLO 205 colon = test system: COLO 205 colon
DU-145 prostate = test system: DU-145 prostate
EKVX NSCLC = test system: EKVX NSCLC
HCC-2998 colon = test system: HCC-2998 colon
HCT-116 colon = test system: HCT-116 colon
HCT-15 colon = test system: HCT-15 colon
HL-60(TB) leukemia = test system: HL-60(TB) leukemia
HOP-62 NSCLC = test system: HOP-62 NSCLC
HOP-92 NSCLC = test system: HOP-92 NSCLC
HS 578T breast = test system: HS 578T breast
HT29 colon = test system: HT29 colon
IGROV1 ovarian = test system: IGROV1 ovarian
K-562 leukemia = test system: K-562 leukemia
KM12 colon = test system: KM12 colon
LOX IMVI melanoma = test system: LOX IMVI melanoma
M14 melanoma = test system: M14 melanoma
MALME-3M melanoma = test system: MALME-3M melanoma
MCF7 breast = test system: MCF7 breast
MDA-MB-231 breast = test system: MDA-MB-231 breast
MDA-N = test system: MDA-N
MOLT-4 leukemia = test system: MOLT-4 leukemia
NCI-H226 lung = test system: NCI-H226 lung
NCI-H23 lung = test system: NCI-H23 lung
NCI-H460 lung = test system: NCI-H460 lung
NCI-H522 lung = test system: NCI-H522 lung
NCI/ADR-RES ovarian = test system: NCI/ADR-RES ovarian
OVCAR-3 ovarian = test system: OVCAR-3 ovarian
OVCAR-4 ovarian = test system: OVCAR-4 ovarian
OVCAR-5 ovarian = test system: OVCAR-5 ovarian
OVCAR-8 ovarian = test system: OVCAR-8 ovarian
PC-3 prostate = test system: PC-3 prostate
RPMI-8226 leukemia = test system: RPMI-8226 leukemia
RXF 393 renal = test system: RXF 393 renal
SF-268 CNS = test system: SF-268 CNS
SF-295 CNS = test system: SF-295 CNS
SF-539 CNS = test system: SF-539 CNS
SK-MEL-2 melanoma = test system: SK-MEL-2 melanoma
SK-MEL-28 melanoma = test system: SK-MEL-28 melanoma
SK-MEL-5 melanoma = test system: SK-MEL-5 melanoma
SK-OV-3 ovarian = test system: SK-OV-3 ovarian
SN12C renal = test system: SN12C renal
SNB-19 CNS = test system: SNB-19 CNS
SNB-75 CNS = test system: SNB-75 CNS
SR leukemia = test system: SR leukemia
SW-620 colon = test system: SW-620 colon
T-47D breast = test system: T-47D breast
TK-10 renal = test system: TK-10 renal
U251 CNS = test system: U251 CNS
UACC-257 melanoma = test system: UACC-257 melanoma
UACC-62 melanoma = test system: UACC-62 melanoma
UO-31 renal = test system: UO-31 renal
786-0 renal = test system: 786-0 renal
ACHN renal = test system: ACHN renal
MDA-MB-435 = test system: MDA-MB-435

SMILES: CC(=O)OC(C)c1cc2c(s1)C(=O)c1sccc1C2=O (stereo not drawn)
- TGI (A498 renal): 4.59 µM
- TGI (A549 NSCLC): 5.29 µM
- TGI (BT-549 breast): 1.68 µM
- TGI (CAKI-1 renal): 8.23 µM
- TGI (CCRF-CEM leukemia): > 100 µM
- TGI (COLO 205 colon): 3.59 µM
- TGI (DU-145 prostate): 0.56 µM
- TGI (EKVX NSCLC): 3.7 µM
- TGI (HCC-2998 colon): 3.54 µM
- TGI (HCT-116 colon): 2.48 µM
- TGI (HCT-15 colon): 2.38 µM
- TGI (HL-60(TB) leukemia): > 100 µM
- TGI (HOP-62 NSCLC): 2.65 µM
- TGI (HOP-92 NSCLC): 16.7 µM
- TGI (HS 578T breast): 7.36 µM
- TGI (HT29 colon): 6.18 µM
- TGI (IGROV1 ovarian): 4.19 µM
- TGI (K-562 leukemia): > 100 µM
- TGI (KM12 colon): 3.36 µM
- TGI (LOX IMVI melanoma): > 100 µM
- TGI (M14 melanoma): 0.389 µM
- TGI (MALME-3M melanoma): 0.407 µM
- TGI (MCF7 breast): 3.9 µM
- TGI (MDA-MB-231 breast): 16.8 µM
- TGI (MDA-N): 0.0338 µM
- TGI (MOLT-4 leukemia): > 23.6 µM
- TGI (NCI-H226 lung): 3.94 µM
- TGI (NCI-H23 lung): 0.546 µM
- TGI (NCI-H460 lung): 2.36 µM
- TGI (NCI-H522 lung): 3.34 µM
- TGI (NCI/ADR-RES ovarian): 5.08 µM
- TGI (OVCAR-3 ovarian): 8.71 µM
- TGI (OVCAR-4 ovarian): 3.5 µM
- TGI (OVCAR-5 ovarian): 3.3 µM
- TGI (OVCAR-8 ovarian): 4.66 µM
- TGI (PC-3 prostate): 14.2 µM
- TGI (RPMI-8226 leukemia): 4.78 µM
- TGI (RXF 393 renal): 3.27 µM
- TGI (SF-268 CNS): 4.09 µM
- TGI (SF-295 CNS): 2.56 µM
- TGI (SF-539 CNS): 0.689 µM
- TGI (SK-MEL-2 melanoma): 2.41 µM
- TGI (SK-MEL-28 melanoma): 3.64 µM
- TGI (SK-MEL-5 melanoma): 0.32 µM
- TGI (SK-OV-3 ovarian): 9.73 µM
- TGI (SN12C renal): 2.26 µM
- TGI (SNB-19 CNS): 2.82 µM
- TGI (SNB-75 CNS): 2.63 µM
- TGI (SR leukemia): > 100 µM
- TGI (SW-620 colon): > 100 µM
- TGI (T-47D breast): 6.2 µM
- TGI (TK-10 renal): 3.86 µM
- TGI (U251 CNS): 4.4 µM
- TGI (UACC-257 melanoma): 0.441 µM
- GI50 (UACC-62 melanoma): 1.38 µM
- TGI (UACC-62 melanoma): 3.05 µM
- TGI (UO-31 renal): 3.28 µM

SMILES: C=C(C)CCC(=O)[C@](C)(O)[C@H]1[C@H](O)C[C@@]2(C)[C@@H]3CCc4c(cc(OC5OC(CO)C(O)C(O)C5O)c(O)c4C)C3(C)C(=O)C[C@]12C (stereo partly drawn)
- TGI (786-0 renal): > 100 µM
- TGI (A498 renal): > 100 µM
- TGI (A549 NSCLC): > 100 µM
- TGI (ACHN renal): > 100 µM
- TGI (BT-549 breast): > 100 µM
- TGI (CAKI-1 renal): > 100 µM
- TGI (CCRF-CEM leukemia): > 100 µM
- TGI (COLO 205 colon): > 100 µM
- TGI (DU-145 prostate): > 100 µM
- TGI (EKVX NSCLC): > 100 µM
- TGI (HCC-2998 colon): > 100 µM
- TGI (HCT-116 colon): > 100 µM
- TGI (HCT-15 colon): > 100 µM
- TGI (HOP-62 NSCLC): > 100 µM
- TGI (HOP-92 NSCLC): > 100 µM
- TGI (HT29 colon): > 100 µM
- TGI (IGROV1 ovarian): > 100 µM
- TGI (K-562 leukemia): > 100 µM
- TGI (KM12 colon): > 100 µM
- TGI (LOX IMVI melanoma): > 100 µM
- TGI (M14 melanoma): > 100 µM
- TGI (MALME-3M melanoma): > 100 µM
- TGI (MCF7 breast): > 100 µM
- TGI (MDA-MB-231 breast): > 100 µM
- TGI (MDA-MB-435): > 100 µM
- TGI (MDA-N): > 100 µM
- TGI (MOLT-4 leukemia): > 100 µM
- TGI (NCI-H226 lung): > 100 µM
- TGI (NCI-H23 lung): > 100 µM
- TGI (NCI-H460 lung): > 100 µM
- TGI (NCI-H522 lung): > 100 µM
- TGI (NCI/ADR-RES ovarian): > 100 µM
- TGI (OVCAR-3 ovarian): > 100 µM
- TGI (OVCAR-4 ovarian): > 100 µM
- TGI (OVCAR-5 ovarian): > 100 µM
- TGI (OVCAR-8 ovarian): > 100 µM
- TGI (PC-3 prostate): > 100 µM
- TGI (RXF 393 renal): > 100 µM
- TGI (SF-268 CNS): > 100 µM
- TGI (SF-295 CNS): > 100 µM
- TGI (SF-539 CNS): > 100 µM
- TGI (SK-MEL-2 melanoma): > 100 µM
- TGI (SK-MEL-28 melanoma): > 100 µM
- TGI (SK-MEL-5 melanoma): > 100 µM
- TGI (SK-OV-3 ovarian): > 100 µM
- TGI (SN12C renal): > 100 µM
- TGI (SNB-19 CNS): > 100 µM
- TGI (SNB-75 CNS): > 100 µM
- TGI (SR leukemia): > 100 µM
- TGI (SW-620 colon): > 100 µM
- TGI (T-47D breast): > 100 µM
- TGI (TK-10 renal): > 100 µM
- TGI (U251 CNS): > 100 µM
- TGI (UACC-257 melanoma): > 100 µM
- TGI (UACC-62 melanoma): > 100 µM
- TGI (UO-31 renal): > 100 µM
